# Experimental data taken from US11384060B2, “Amide compounds and use thereof” (ALPHALA CO., LTD., priority 2017, dated 2022).
# Key:
# [1] = molecular target: T1, glucagon receptor (GCGR) overexpressed CHO-K1 cells or human primary hepatocytes (Homo sapiens, UniProt P47871); experiment: Glucagon cAMP inhibition assay (Cisbio cAMP Dynamic 2 HTRF); assay type: cell-based; conditions: inhibition of glucagon (EC50 concentration) induced cAMP production
# T1 construct: expressed in transfected cells; host or cells: GCGR overexpressed CHO-K1 cells or human primary hepatocytes (endogenous receptor)
# Protocol: Glucagon cAMP Inhibition Assay
# Downstream secondary messenger cAMP induced by glucagon was detected by Cisbio cAMP Dynamic 2 kit. Testing compounds were each prepared as a dimethyl sulfoxide (DMSO) solution at the concentration of 10 mM. To evaluate the potency of compounds in inhibiting the cAMP production, glucagon receptor (GCGR) overexpressed CHO-K1 cells or human primary hepatocytes were treated with compounds with a serial dilution. The cells were re-suspended in Hank's Balanced Salt solution (HBSS) contained 0.1% (w/v) bovine serum albumin and 800 nM 3-isobutyl-1-methylxanthine (IBMX) and seeded into low volume, 384 wells white plate. The diluted compounds were then added into the plate for 30 minutes pre-incubation where the final DMSO concentration was 1%. The cells were stimulated with glucagon at the concentration equaled to EC50 (an indicium of the concentration of a drug that gives half-maximal response) for 30 minutes at room temperature. After incubation, lysis buffer contain cAMP antibody and fluorescence acceptor were added into each well for additional 60 minutes incubation. Results were recorded by Molecular Devices SpectraMax Paradigm with the HTRF Detection Cartridges and the IC50 value of each compound in inhibiting the cAMP production was calculated with non-linear regression based on the amount of cAMP production.
# glucagon receptor (GCGR) = molecular target: T2, glucagon receptor (GCGR) (Homo sapiens, UniProt P47871); experiment: I125-glucagon binding assay (competition, GCGR membrane fractions); conditions: competition with I125-glucagon 0.0625 nM, membrane fractions of GCGR overexpressed CHO-K1 cells
# T2 construct: expressed in transfected cells; host or cells: CHO-K1 cells overexpressing GCGR (membrane fractions)
# Protocol: I^125-Glucagon Binding Assay
# The binding affinity of each compound was evaluated by a competition assay with I^125-glucagon. GCGR membrane fractions were obtained from GCGR overexpressed CHO-K1 cells as a stock of 1 mg/ml concentration. To evaluate the IC50 of compounds binding to GCGR, GCGR membrane fractions were treated with compounds with a serial dilution. The membrane fractions were diluted to 7.5 microgram per well in 70 microliter assay buffer contained 50 mM Tris pH 7.4 and 0.5% (w/v) bovine serum albumin and added into 96 wells plate. The membrane fractions were then mixed with 10 microliter diluted compounds. After 5 minutes pre-incubation, 20 microliter I^125 labeled glucagon (Perkin Elmer) was added into each well at the final concentration of 0.0625 nM. The assay mixtures were incubated at 25° C. for 30 minutes and then transferred onto the Millipore MultiScreen GF/B Plate coated with 0.5% (w/v) Polyethyleneimine. The filter plate was washed with wash buffer contained 50 mM Tris pH 7.4 for 2 times, 300 microliter each time. The residual isotope was detected by Hidex CHAMELEON V micro-beta counter and the IC50 value of each compound binding to GCGR was calculated with non-linear regression.
# T1 sequence (P47871 26-477): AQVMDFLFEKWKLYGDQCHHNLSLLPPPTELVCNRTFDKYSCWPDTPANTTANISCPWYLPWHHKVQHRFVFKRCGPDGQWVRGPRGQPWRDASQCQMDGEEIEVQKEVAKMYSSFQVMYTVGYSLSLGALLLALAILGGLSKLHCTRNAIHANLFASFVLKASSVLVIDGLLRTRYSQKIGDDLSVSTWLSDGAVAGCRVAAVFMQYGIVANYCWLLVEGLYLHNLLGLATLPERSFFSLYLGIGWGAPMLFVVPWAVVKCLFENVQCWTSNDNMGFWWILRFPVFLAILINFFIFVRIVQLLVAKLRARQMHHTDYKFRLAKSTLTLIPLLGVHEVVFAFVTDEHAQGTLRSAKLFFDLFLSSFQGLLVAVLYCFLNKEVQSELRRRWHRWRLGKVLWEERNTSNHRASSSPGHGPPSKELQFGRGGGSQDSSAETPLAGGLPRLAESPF
# T2 sequence (P47871 26-477): as above
IC50 cAMP [1] [nM],IC50 (glucagon receptor (GCGR)) [nM],Compound
3553,112,"CC[C@H](C)[C@@H](COc1ccc(-c2ccc(Cl)cc2Cl)cc1)Nc1ccc(C(=O)NC[C@@H](O)C(=O)O)cc1 [Compound 1-14, (R)-3-(4-(((2S,3S)-1-((2′,4′-dichloro-[1,1′-biphenyl]-4-yl)oxy)-3-methylpentan-2-yl)amino)benzamido)-2-hydroxypropanoic Acid]"
338.8,211,"CCCC[C@@H](COc1ccc(-c2ccc(C(F)(F)F)cc2)cc1)Nc1ccc(C(=O)NCCC(=O)O)cc1 [Compound 1-15, (S)-3-(4-((1-((4′-(trifluoromethyl)-[1,1′-biphenyl]-4-yl)oxy)hexan-2-yl)amino)benzamido)propanoic Acid]"
948.8,52,"CCCC[C@@H](COc1ccc(-c2ccc(C(F)(F)F)cc2)cc1)Nc1ccc(C(=O)NCc2nnn[nH]2)cc1 [Compound 1-16, (S)—N-((1H-tetrazol-5-yl)methyl)-4-((1-((4′-(trifluoromethyl)-[1,1′-biphenyl]-4-yl)oxy)hexan-2-yl)amino)benzamide]"
864.4,34,"CCCC[C@@H](COc1ccc(-c2ccc(Cl)cc2Cl)cc1)Nc1ccc(C(=O)NCCC(=O)O)cc1 [Compound 1-17, (S)-3-(4-((1-((2′,4′-dichloro-[1,1′-biphenyl]-4-yl)oxy)hexan-2-yl)amino)benzamido)propanoic Acid]"
1564,31,"CCCC[C@@H](COc1ccc(-c2ccc(Cl)cc2Cl)cc1)Nc1ccc(C(=O)NCc2nnn[nH]2)cc1 [Compound 1-18, (S)—N-((1H-tetrazol-5-yl)methyl)-4-((1-((2′,4′-dichloro-[1,1′-biphenyl]-4-yl)oxy)hexan-2-yl)amino)benzamide]"
93,11,"CCCC[C@@H](COc1ccc(-c2ccc(C(F)(F)F)cc2Cl)cc1)Nc1ccc(C(=O)NCCC(=O)O)cc1 [Compound 1-19, (S)-3-(4-((1-((2′-chloro-4′-(trifluoromethyl)-[1,1′-biphenyl]-4-yl)oxy)hexan-2-yl)amino)benzamido)propanoic Acid]"
524,96,"CCCC[C@@H](COc1ccc(-c2ccc(C(F)(F)F)cc2Cl)cc1)Nc1ccc(C(=O)NCc2nnn[nH]2)cc1 [Compound 1-20, (S)—N-((1H-tetrazol-5-yl)methyl)-4-((1-((2′-chloro-4′-(trifluoromethyl)-[1,1′-biphenyl]-4-yl)oxy)hexan-2-yl)amino)benzamide]"
>30000,> 30000,"CC(C)[C@@H](COc1ccc(-c2ccc(N(C)C)cc2)cc1)Nc1ccc(C(=O)NC[C@@H](O)C(=O)O)cc1 [Compound 1-21, (R)-3-(4-(((S)-1-((4′-(dimethylamino)-[1,1′-biphenyl]-4-yl)oxy)-3-methylbutan-2-yl)amino)benzamido)-2-hydroxypropanoic Acid]"
14.2,70,"CC(C)[C@@H](COc1ccc(-c2ccc(C(F)(F)F)cc2Cl)cc1)Nc1ccc(C(=O)NCCC(=O)O)cc1 [Compound 1-22, (S)-3-(4-((1-((2′-chloro-4′-(trifluoromethyl)-[1,1′-biphenyl]-4-yl)oxy)-3-methylbutan-2-yl)amino)benzamido)propanoic Acid]"
39.8,148,"O=C(O)CCNC(=O)c1ccc(NC(COc2ccc(-c3cc4ccccc4o3)cc2)c2ccccc2)cc1 (centres unmarked) [Compound 1-23, 3-(4-((2-(4-(benzofuran-2-yl)phenoxy)-1-phenylethyl)amino)benzamido) propanoic Acid]"
187.5,134,"CC(C)[C@@H](COc1ccc(-c2ccc(C(F)(F)F)cn2)cc1)Nc1ccc(C(=O)NCCC(=O)O)cc1 [Compound 1-24, (S)-3-(4-((3-methyl-1-(4-(5-(trifluoromethyl)pyridin-2-yl)phenoxy)butan-2-yl)amino)benzamido)propanoic Acid]"
90.4,44,CC(C)[C@@H](COc1ccc(-c2ccc(C(F)(F)F)cc2F)cc1)Nc1ccc(C(=O)NCCC(=O)O)cc1 [Compound 1-25]
96.5,108,"CCCC[C@@H](COc1ccc(-c2ccc(C(F)(F)F)cc2F)cc1)Nc1ccc(C(=O)NCCC(=O)O)cc1 [Compound 1-27, (S)-3-(4-((1-((2′-fluoro-4′-(trifluoromethyl)-[1,1′-biphenyl]-4-yl)oxy)hexan-2-yl)amino)benzamido)propanoic Acid]"
287.7,150,"O=C(O)CCNC(=O)c1ccc(NC(COc2ccc(-c3ccc(C(F)(F)F)cc3)cc2)c2ccccc2)cc1 (centres unmarked) [Compound 1-28, 3-(4-((1-phenyl-2-((4′-(trifluoromethyl)-[1,1′-biphenyl]-4-yl)oxy)ethyl)amino)benzamido)propanoic Acid]"
>30000,2790,"CC(C)[C@@H](COc1ccc(-c2ccc(C(F)(F)F)nn2)cc1)Nc1ccc(C(=O)NCCC(=O)O)cc1 [Compound 1-29, (S)-3-(4-((3-methyl-1-(4-(6-(trifluoromethyl)pyridazin-3-yl)phenoxy)butan-2-yl)amino)benzamido)propanoic Acid]"
1214,7630,CCOC(=O)CCNC(=O)c1ccc(N[C@H](COc2ccc(-c3nc4ccccc4s3)cc2)C(C)C)cc1 [Compound 1-30]
83,5770,"COC(=O)CCNC(=O)c1ccc(N[C@H](COc2ccc(-c3nc4ccccc4s3)cc2)C(C)C)cc1 [Compound 1-31, Methyl (S)-3-(4-((1-(4-(benzo[d]thiazol-2-yl)phenoxy)-3-methylbutan-2-yl)amino)benzamido)propanoate]"
152,57,"CC(C)[C@@H](COc1ccc(-c2nc3ccccc3s2)cc1)Nc1ccc(C(=O)NCCC(=O)O)cc1 [Compound 1-32, (S)-3-(4-((1-(4-(benzo[d]thiazol-2-yl)phenoxy)-3-methylbutan-2-yl)amino)benzamido)propanoic Acid]"
3767,1900,"CC(C)[C@@H](COc1ccc(-c2ccc(C(F)(F)F)cc2F)cc1)Nc1ccc(C(=O)NCCS(=O)(=O)O)cc1 [Compound 1-33, (S)-2-(4-((1-((2′-fluoro-4′-(trifluoromethyl)-[1,1′-biphenyl]-4-yl)oxy)-3-methylbutan-2-yl)amino)benzamido)ethane-1-sulfonic Acid]"
238.7,113,"CC(C)[C@H](COc1ccc(-c2cc3ccccc3o2)cc1)Nc1ccc(C(=O)NCCC(=O)O)cc1 [Compound 1-34, (R)-3-(4-((1-(4-(benzofuran-2-yl)phenoxy)-3-methylbutan-2-yl)amino)benzamido) propanoic Acid]"
209.3,145,CC(C)[C@H](COc1ccc(-c2ccc(C(F)(F)F)cc2Cl)cc1)Nc1ccc(C(=O)NCCC(=O)O)cc1 [Compound 1-35]
243,141,"CC(C)(C)[C@@H](COc1ccc(-c2ccc(Cl)cc2Cl)cc1)Nc1ccc(C(=O)NCCC(=O)O)cc1 [Compound 1-36, (S)-3-(4-((1-((2′,4′-dichloro-[1,1′-biphenyl]-4-yl)oxy)-3,3-dimethylbutan-2-yl)amino)benzamido)propanoic Acid]"
